Data: patent US10604489B2, “Compounds for the treatment of pain” (priority 2018, dated 2020)
Counter-ions that a name gives are not always drawn.

Experiments:
[1] = biological target: human μ opioid receptor (Homo sapiens (Human), UniProt P35372); assay: Functional activity ([35S]GTPγS binding); assay type: biochemical; details: [35S]GTPγS 0.080 nM, CHO cell membranes, 60 min at 30° C., filtration
Procedure: The [^35S]GTPγS assay measures the functional properties of a compound by quantifying the level of G-protein activation following agonist binding in studies using stably transfected cells, and is considered to be a measure of the efficacy of a compound. Membranes from CHO (Chinese Hamster Ovary) cells that stably expressed one type of the cloned human opioid receptor human were used in the experiments. In a final volume of 0.5 mL, 12 different concentrations of each test compound were incubated with 7.5 μg of CHO cell membranes that stably expressed the human p opioid receptor. The assay buffer consisted of 50 mM Tris-HCl, pH 7.4, 3 mM MgCl2, 0.2 mM EGTA, 3 μM GDP, and 100 mM NaCl. The final concentration of [35S]GTPγS was 0.080 nM. Nonspecific binding was measured by inclusion of 10 μM GTPγS. Binding was initiated by the addition of the membranes. After an incubation of 60 min at 30° C., the samples were filtered through Schleicher & Schuell No. 32 glass fiber filters. The filters were washed three times with cold 50 mM Tris-HCl, pH 7.5, and were counted in 2 mL of Ecoscint scintillation fluid.

[2] = biological target: μ-receptor (Homo sapiens (Human), UniProt P35372); assay: Receptor binding, competitive displacement of [3H]DAMGO; details: 0.25 nM [3H]DAMGO, CHO cell membrane protein, 60 min at 25° C.
Procedure: The Ki (binding affinity) for μ-receptor was determined with a previously described method using a competitive displacement assay (Neumeyer et al., J. Med. Chem., v. 46, p. 5162-5170, 2003). Membrane protein from CHO (Chinese Hamster Ovarian) cells that stably expressed one type of the cloned human opioid receptor were incubated with 12 different concentrations of the compound in the presence of 0.25 nM [3H]DAMGO, 0.2 nM [3H]naltrindole or 1 nM [3H]U69,593 in a final volume of 1 mL of 50 mM Tris-HCl, pH 7.5 at 25° C. Incubation times of 60 min were used for [3H]DAMGO and [3H]U69,593. Because of a slower association of [3H]naltrindole with the receptor, a 3 h incubation was used with this radioligand. Samples incubated with [3H]naltrindole also contained 10 mM MgCl2 and 0.5 mM phenylmethylsulfonyl fluoride. Nonspecific binding was measured by inclusion of 10 μM naloxone. The binding was terminated by filtering the samples through Schleicher & Schuell No. 32 glass fiber filters using a Brandel 48-well cell harvester. The filters were subsequently washed three times with 3 mL of cold 50 mM Tris-HCl, pH 7.5, and were counted in 2 mL Ecoscint A scintillation fluid. For [3H]naltrindole and [3H]U69,593 binding, the filters were soaked in 0.1% polyethylenimine for at least 60 min before use. IC50 values will be calculated by least squares fit to a logarithm-probit analysis. Ki values of unlabelled compounds were calculated from the equation Ki=(IC50)/1+S where S=(concentration of radioligand)/(Kd of radioligand) (Cheng and Prusoff, Biochemical Pharmacology, v. 22, p. 3099-3108, 1973).

Compound	EC50 [1]	Ki [2]
COC1(c2cccc(C(N)=O)c2)C2CCCC1CN(C1CC3CCC(C1)O3)C2 (single isomer, unassigned) [Compound 14, hydrochloride]	> 75 nM	1 to 5 nM
COC[C@H](C)N1CC2CCCC(C1)C2(OC)c1ccnc(C(N)=O)c1.Cl (single isomer, unassigned) [Compound 61, hydrochloride]	10 to 75 nM	1 to 5 nM
COC[C@@H](C)N1CC2CCCC(C1)C2(OC)c1ccnc(C(N)=O)c1 (single isomer, unassigned) [Compound 62, hydrochloride]	> 75 nM	> 5 nM
CCC[C@H](C)N1CC2CCCC(C1)C2(OC)c1ccnc(C(N)=O)c1 (single isomer, unassigned) [Compound 134, hydrochloride]	10 to 75 nM	< 1 nM
COC1(c2ccnc(C(N)=O)c2)C2CCCC1CN(C[C@@H]1CCCO1)C2 (single isomer, unassigned) [Compound 135, hydrochloride]	10 to 75 nM	1 to 5 nM
COC1(c2ccnc(C(N)=O)c2)C2CCCC1CN(C[C@H]1CCCO1)C2.Cl (single isomer, unassigned) [Compound 136, hydrochloride]	10 to 75 nM	> 5 nM
CCC[C@@H](C)N1CC2CCCC(C1)C2(OC)c1ccnc(C(N)=O)c1 (single isomer, unassigned) [Compound 137, hydrochloride]	10 to 75 nM	1 to 5 nM
COC1(c2cccc(C(N)=O)c2)C2CCCC1CN([C@H]1CCCOC1)C2.Cl (single isomer, unassigned) [Compound 140, hydrochloride]	10 to 75 nM	< 1 nM
COC1(c2cccc(C(N)=O)c2)C2CCCC1CN([C@@H]1CCCOC1)C2 (single isomer, unassigned) [Compound 141, hydrochloride]	10 to 75 nM	< 1 nM
COC1(c2cccc(C(N)=O)c2)C2CCCC1CN(C[C@@H]1CCOC1)C2.Cl (single isomer, unassigned) [Compound 143, hydrochloride]	< 10 nM	< 1 nM
COC1(c2ccnc(C(N)=O)c2)C2CCCC1CN([C@H]1CC[C@@H]1C)C2 (single isomer, unassigned) [Compound 144, hydrochloride]	10 to 75 nM	< 1 nM
COC1(c2cccc(C(N)=O)c2)C2CCCC1CN(C[C@H]1CCOC1)C2 (single isomer, unassigned) [Compound 148, hydrochloride]	< 10 nM	< 1 nM
COC1(c2ccnc(C(N)=O)c2)C2CCCC1CN([C@H]1CC[C@@H]1C)C2 (stereo in doubt) [Compound 147, 4-((1R,5S,9R)-9-methoxy-3-((1R,2R)-2-methylcyclobutyl)-3-azabicyclo[3.3.1]nonan-9-yl)picolinamide hydrochloride]	10 to 75 nM	1 to 5 nM
COC1(c2ccnc(C(N)=O)c2)C2CCCC1CN(CCS(C)(=O)=O)C2 [Compound 8, 4-((1R,5S,9r)-9-methoxy-3-(2-(methylsufonyl)ethyl)-3-azabicyclo[3.3.1]nonan-9-yl)picolinamide hydrochloride]		> 5 nM
COC1(c2ccnc(C(N)=O)c2)C2CCCC1CN(CC1(F)CCOCC1)C2 [Compound 15, 4-((1R,5S,9r)-34(4-fluorotetrahydro-2H-pyran-4-yl)methyl)-9-methoxy-3-azabicyclo[3.3.1]nonan-9-yl)picolinamide hydrochloride]		> 5 nM
COC1(c2cccc(C(N)=O)c2)C2CCCC1CN(C(C)C)C2 [Compound 25, 3-((1R,5S,9r)-3-isopropyl-9-methoxy-3-azabicyclo[3.3.1]nonan-9-yl)benzamide hydrochloride]		< 1 nM

Compound	EC50 [1]	Ki [2]
COC1(c2cncc(C(N)=O)c2)C2CCCC1CN(CC1CC1)C2 [Compound 28, 5-((1R,5S,9r)-3-(cyclopropylmethyl)-9-methoxy-3-azabicyclo[3.3.1]nonan-9-yl)nicotinamide hydrochloride]		> 5 nM
COC1(c2ccc(C(N)=O)cc2)C2CCCC1CN(CC1CC1)C2 [Compound 31, 4-((1R,5S,9r)-3-(cyclopropylmethyl)-9-methoxy-3-azabicyclo[3.3.1]nonan-9-yl)benzamide hydrochloride]		> 5 nM
COC1(c2cccc(C(N)=O)c2)C2CCCC1CN(CC(F)(F)F)C2 [Compound 32, 3-((1R,5S,9r)-9-methoxy-3-(2,2,2-trifluoroethyl)-3-azabicyclo[3.3.1]nonan-9-yl)benzamide hydrochloride]		> 5 nM
COC1(c2cccc(C(N)=O)n2)C2CCCC1CN(C)C2 [Compound 33, 6-((1R,5S,9r)-9-methoxy-3-methyl-3-azabicyclo[3.3.1]nonan-9-yl)picolinamide hydrochloride]		> 5 nM
COC1(c2ccc(F)c(C(N)=O)c2)C2CCCC1CN(C)C2 [Compound 41, 2-fluoro-5-((1R,5S,9r)-9-methoxy-3-methyl-3-azabicyclo[3.3.1]nonan-9-yl)benzamide hydrochloride]		> 5 nM
COC1(c2cc(C(N)=O)ccn2)C2CCCC1CN(C)C2 [Compound 44, 2-((1R,5S,9r)-9-methoxy-3-methyl-3-azabicyclo[3.3.1]nonan-9-yl)isonicotinamide hydrochloride]		1 to 5 nM
COC1(c2cc(O)cc(C(N)=O)c2)C2CCCC1CN(C)C2 [Compound 52, 3-hydroxy-5-((1R,5S,9r)-9-methoxy-3-methyl-3-azabicyclo[3.3.1]nonan-9-yl)benzamide hydrochloride]		> 5 nM
COC1(c2cc(C(N)=O)cs2)C2CCCC1CN(CC1CC1)C2 [Compound 59, 5-((1R,5S,9r)-3-(cyclopropylmethyl)-9-methoxy-3-azabicyclo[3.3.1]nonan-9-yl)thiophene-3-carboxamide hydrochloride]		1 to 5 nM
COC1(c2ccnc(C(N)=O)c2)C2CCCC1CN(CCN1CCOC1=O)C2 [Compound 80, 4-((1R,5S,9r)-9-methoxy-3-(2-(2-oxooxazolidin-3-yl)ethyl)-3-azabicyclo[3.3.1]nonan-9-yl)picolinamide hydrochloride]		> 5 nM
COC1(c2ccnc(C(N)=O)c2)C2CCCC1CN(C1CN(C(C)=O)C1)C2 [Compound 84, 4-((1R,5S,9r)-3-(1-acetylazetidin-3-yl)-9-methoxy-3-azabicyclo[3.3.1]nonan-9-yl)picolinamide hydrochloride]		> 5 nM
COC1(c2ccnc(C(N)=O)c2)C2CCCC1CN(CC(C)(C)C)C2 [Compound 105, 4-((1R,5S,9r)-9-methoxy-3-neopentyl-3-azabicyclo[3.3.1]nonan-9-yl)picolinamide hydrochloride]		> 5 nM
COC1(c2ccnc(C(N)=O)c2)C2CCCC1CN([C@@H]1CC[C@@H]1c1ccccc1)C2 (stereo partly drawn) [Compound 110, 4-((1R,5S,9R)-9-methoxy-3-((1R,2R)-2-phenylcyclobutyl)-3-azabicyclo[3.3.1]nonan-9-yl)picolinamide hydrochloride]		> 5 nM
COC1(c2ccnc(C(N)=O)c2)C2CCCC1CN([C@H]1CC[C@H]1c1ccccc1)C2 (stereo partly drawn) [Compound 116, 4-((1R,5S,9s)-9-methoxy-3-((1S,2S)-2-phenylcyclobutyl)-3-azabicyclo[3.3.1]nonan-9-yl)picolinamide (S)-2-hydroxysuccinate]		> 5 nM
COC1(c2ccnc(C(N)=O)c2)C2CCCC1CN(Cc1cc3ccccc3[nH]1)C2 [Compound 119, 4-((1R,5S,9r)-3-((1H-indol-2-yl)methyl)-9-methoxy-3-azabicyclo[3.3.1]nonan-9-yl)picolinamide (S)-2-hydroxysuccinate]	< 10 nM	
COC1(c2ccnc(C(N)=O)c2)C2CCCC1CN(Cc1cccc(=O)[nH]1)C2 [Compound 120, 4-((1R,5S,9r)-34(6-hydroxypyridin-2-yl)methyl)-9-methoxy-3-azabicyclo[3.3.1]nonan-9-yl)picolinamide hydrochloride]		> 5 nM
COC1(c2ccnc(C(N)=O)c2)C2CCCC1CN(Cc1cnnn1C)C2 [Compound 125, 4-((1R,5S,9r)-9-methoxy-3-((1-methyl-1H-1,2,3-triazol-5-yl)methyl)-3-azabicyclo[3.3.1]nonan-9-yl)picolinamide hydrochloride]		> 5 nM
